Here are results for three molecules from PMC6584114, “Metabolism of IMM-H004 and Its Pharmacokinetic-Pharmacodynamic Analysis in Cerebral Ischemia/Reperfusion Injured Rats” (Frontiers in Pharmacology, 2019).

Like-named read-outs stand apart in the source and are kept apart here.

Details of data set [1]: method as in Jiang et al., 2018. As to conditions: brain microdialysis; ref Jiang et al., 2018; cited from earlier work.
Data set [2] deals with MCAO/R rats. Nature of the data set: Neuroprotection in transient MCAO/R rats (infarct volume, neurological score). It counts as in vivo, rat. As to conditions: 10 mg/kg iv after reperfusion, 24 h, vs model. The source says:
Transient MCAO/R was applied to compare the neuroprotection of IMM-H004 and IMM-H004G. Rats were fasted overnight with free access to water and randomly assigned to different groups. Rats were anesthetized with a mixture of 5% isoflurane and 95% oxygen and maintained with a mixture of 3% isoflurane and 97% oxygen during the surgical procedure. A 4-0 nylon thread, the tip of which was burned (diameter 0.36 mm), was inserted into the right internal carotid artery and advanced until the origin of the right MCA was occluded. After 60 min of the occlusion, the thread was withdrawn to allow reperfusion, and then the rats were returned to the chamber. Saline or edaravone at dose of 6 mg/kg or IMM-H004 citrate and IMM-H004G at dose of 10 mg/kg (dissolved in saline to yield a concentration of 2 mg/ml) were administered by intravenous injection immediately after reperfusion.
The rats were assessed for neurologic deficits at 24 h after reperfusion according to Zea Longa’s five-point scale. […] The animals without symptoms of neurological impairment or dying after the surgery were rejected. All animals were killed 24 h after reperfusion. Brains of the animals were removed and cut into 2 mm-thick slices, for a total of six slices per animal. The slices were immersed in a 2% solution of 2,3,5-triphenyltetrazolium chloride in phosphate buffered saline at 37°C for 20 min and then fixed in 4% formaldehyde overnight. Images of the slices were obtained with a scanner and a computer. The infarct area and the total area were calculated by tracing the areas on the computer screen with Image J. The percentage of the infarct volume was expressed as the infarct volumes (white parts)/the whole volume of the cortex.

Data set [3] can be described thus: Excretion in rat urine, bile and feces after iv IMM-H004 citrate. It counts as in vivo. Conditions: iv IMM-H004 citrate 6 mg/kg. The protocol:
After intravenous (iv) injection with IMM-H004 citrate (6 mg/kg, dissolved in saline to yield a concentration of 1.2 mg/ml), rats were housed individually in metabolic cages to allow separate collection of urine and feces until 72 h postdose. Additional rats were bile cannulated under light ether anesthesia. Each rat was housed individually in a metabolic cage and allowed to recover from anesthesia for 2 to 3 h. Then bile duct cannulated rats were iv injected with IMM-H004 citrate (6 mg/kg, dissolved in saline to yield a concentration of 1.2 mg/ml), bile samples were collected until 24 h postdose.
Feces samples were homogenized in 10-fold solvent of water and methanol (1:1) and diluted 10-fold in water. Bile and urine samples were diluted 100-fold in water. The concentrations of IMM-H004, M1, M2, and IMM-H004G in diluted bile, urine, and feces samples were determined by LC-MS/MS.
(§1) The LC-MS/MS system consisted of Shimadzu 30A UPLC and API 4000 triple quadruple mass spectrometer (AB SCIEX, USA). Data acquisition and analysis were accomplished using Analyst 1.5.2 software. The analytes and IS were chromatographed by injection of 1 μL sample. The mobile phases consisted of solvent A (0.5% formic acid in water) and solvent B (0.5% formic acid in methanol) at a flow rate of 0.3 ml/min on an Eclipse Plus C18 column (2.1 mm × 50 mm, 3.5 μm, Agilent, USA), and the operating temperature was 40°C. The elution condition was 10% solvent B for 0.7 min, ascending to 98% B in 2.3 min, holding for 3.0 min and reequilibrating to 10% B within 0.1 min and maintained for 2.4 min (Jiang JW, 2018). The specific transitions monitored were 305→248 for IMM-H004, 291→234 for M1, 291→248 for M2, 481→305 for IMM-H004G, 385→305 for M4, and 260→183 for IS.

For data set [4], the system named is primary human hepatocytes. Nature of the data set: IMM-H004 metabolism by primary human hepatocytes. It counts as in vitro ADME. As to conditions: human hepatocytes incubated with 30 nM IMM-H004, up to 3 h. As for the experimental part:
Primary human hepatocytes were used to predict the metabolism of IMM-H004 in humans. Cryopreserved human hepatocytes were obtained from Bioreclamation IVT (Baltimore, MD, USA). Three different hepatocyte preparations (Lot CDP, ZHL, and DSX) were pooled in this study. Hepatocytes were resuspended and seeded in 96-well plates at a density of 0.7 × 10^6 cells/ml. After 24 h of culture, cells were washed with Hanks’ balanced salt solution, followed by addition of 30 nM IMM-H004 dissolved in Hanks’ balanced salt solution. Incubations were carried out at 37°C up to 3 h under gentle shaking. Cell culture supernatant was collected within 3 h and determined by LC-MS/MS. All experiments were conducted in triplicate.
as §1

The test system of data set [5] is PC12 cells. Nature of the data set: Neuroprotection in oxygen-glucose deprivation injured PC12 cells (MTT cell viability). Type of data set: cell-based. The protocol:
The neuroprotective activity of IMM-H004 and IMM-H004G was evaluated on PC12 cells damaged by oxygen-glucose deprivation (OGD). PC12 cells were purchased from the American Type Culture Collection. Cultures were maintained at 37°C in 5% CO2 in a humidified incubator. For cell viability assay, PC12 cells were incubated in 96-well plates at a density of 5 × 10^4/ml for 24 h. In the sham group, PC12 cells were cultured in Dulbecco’s modified eagle medium supplemented with 5% fetal bovine serum and 5% equine serum (Gibco, USA). In the OGD group, PC12 cells were cultured in glucose-free Earle’s balanced salt solution supplemented with 15 mM Na2S2O4 for 2 h and then incubated with compounds of nerve growth factor (NGF, 10 μM), edaravone (10 μM, 50 μM), IMM-H004 (1 μM, 10 μM), and IMM-H004G (1 μM, 10 μM), respectively. After 24 h of incubation, MTT (5 mg/ml) was added into the cell cultures and incubated for an additional 4 h. Then the supernatant was removed and 100 μL DMSO was added. Absorbance was measured using an Ultramark microplate reader at a wavelength of 562 nm. The cell viability was expressed as a percentage of the absorbance density value of control cultures.

Data set [6] in a line: Plasma pharmacokinetics in MCAO/R rats after iv IMM-H004 citrate. It counts as in vivo. Conditions: rat, iv IMM-H004 citrate 10 mg/kg; for Tmax: iv, 10 mg/kg. As for the experimental part: The plasma pharmacokinetics (PK) and pharmacodynamics (PD) of IMM-H004 and IMM-H004G were investigated in a cerebral ischemia-reperfusion rat model produced by middle cerebral artery occlusion/reperfusion (MCAO/R) after iv administration of IMM-H004. In brief, rats underwent a 1-h MCAO and then received IMM-H004 citrate (10 mg/kg, dissolved in saline to yield a concentration of 2 mg/ml) immediately after reperfusion, an effective dosing time as reported ([Zuo et al., 2015]; [Yang et al., 2017]). For sham surgery, all the arteries were exposed for the surgical period, but the filament was not inserted into the MCA. Blood samples were collected through external jugular vein cannula into heparinized tubes at 0.033, 0.167, 0.5, 1, 2, 4, 6, 8, 12, 24, 36, and 48 h postdose for IMM-H004 and IMM-H004G detection (50 μL of blood at each time point) and at 0.5, 1, 2, 4, 7, and 10 h postdose for malondialdehyde (MDA) detection (80 μL of blood at each time point). Plasma was immediately separated by centrifugation at 900×g for 5 min. Plasma concentrations of IMM-H004 and IMM-H004G in ischemia-reperfusion rats were determined by LC-MS/MS analysis. The PK parameters were calculated by noncompartmental analysis using WinNonlin Version 6.1 (Pharsight, Mountain View, CA). Plasma MDA concentrations in ischemia-reperfusion and sham rats within 24 h were estimated by enzyme-linked immunosorbent assay.
as §1

The test system of data set [7] is chemokine-like factor 1. More on the design: method as in earlier work. Conditions: ref Li et al., 2010, Kong et al., 2011, Sun et al., 2013, 2014, read-out: IC50 as antagonist of chemokine-like factor 1; cited from earlier work.
The subject of data set [8] is recombinant human CYP450 enzymes. Nature of the data set: Metabolism by cDNA-expressed human CYP450 enzymes. It counts as in vitro ADME. Conditions: 1 μM IMM-H004, 50 pmol/ml CYP, 40 min. The protocol:
CYP450s. IMM-H004 was incubated in triplicate with […] individual human complementary DNA (cDNA) expressed CYPs (CYP1A1, 1A2, 2A6, 2B6, 2C8, 2C9, 2C19, 2D6, 2E1, 2J2, 3A4, 4A11, 4F2, and 4F3) at 37°C. The incubation mixtures contained individual CYP450 enzymes (50 pmol/ml), IMM-H004 (1 μM), and NADPH regeneration system in a final volume of 0.2 ml Tris-HCl buffer (50 mM, pH 7.4) containing 5 mM MgCl2. The mixtures were incubated for 40 min before being quenched with two volumes of ice-cold acetonitrile containing IS (100 ng/ml). After vortex-mixing and centrifugation, M1 and M2 in the supernatant were analyzed by LC-MS/MS.

Data set [9] concerns cell cultures. As to conditions: not tested in this paper's methods; reference not given; cited from earlier work.

What is called AUC(0-inf) is total exposure, with the tail of the curve extrapolated. A word on the AUC(0-t): it is the area under the concentration-time curve up to a stated or last time point. Low readings indicate less exposure, high ones more exposure. A word on the Cmax: it is the maximum level reached in the sampled fluid or tissue. On to `COc1cc(OC2OC(C(=O)O)C(O)C(O)C2O)cc2oc(=O)c(N3CCN(C)CC3)c(C)c12` (stereo not shown) [IMM-H004G], for which, in data set [1], the “exposure of IMM-H004G in rat brain extracellular fluid relative to IMM-H004” value was 10.5 fold. Further, in [2], the infarct volume entry was “markedly reduced (p < 0.01)” and the neurological test score entry was “significant improvement (p < 0.01)”. In data set [3] (bile duct cannulated rats, until 24 h), the “recovery of IMM-H004G in bile” value is on record as 75.9 % of intake. Besides, in data set [3] (rat feces), the IMM-H004G in feces entry is recorded as “undetectable”. Further, the “urinary IMM-H004G recovered” value in [3] (rat urine, 72-h sampling period) is 69.7 % of intake. Moreover, the “detection of metabolite in cell supernatant” value (shortened to “detection of metabolite”) in [4] is listed as “could be detected”. Besides, the “cell viability of OGD-injured PC12 cells” value in [5] (1 and 10 μM, 24 h, MTT, vs model group) was “significant (p < 0.05) preservation of viability”. For the same molecule, the “IMM-H004 detected in PC12 cultures after incubation with IMM-H004G” value in data set [5] (24 h of incubation with IMM-H004G) is recorded as “only trace of IMM-H004 could be detected”. Besides, in data set [6], the AUC(0-inf) is 29100 ng·h/mL, the AUC(0-t) is 28900 ng·h/mL and the concentration peaked (Cmax) at 13000 ng/mL. Also, the MRT last in data set [6] (read-out: MRT(0-t)) was 7.89 ± 0.57 h. The MRT inf in data set [6] (read-out: MRT(0-∞)) came out at 8.16 ± 0.65 h. The half-life in data set [6] (read-out: t 1/2β (converted)) is 6.61 ± 0.86 h. Also, the Tmax in [6] (read-out: T max) was determined as 0.17 h. Besides, the Tmax in [6] (read-out: time to maximum plasma concentration after dosing) is at most 0.25 h.

Usually IC50 stands for the point on the concentration scale where inhibition reaches its midpoint. For the molecule `Cc1c(N2CCN(C)CC2)c(=O)oc2cc(O)cc(O)c12` [M1], in data set [7], the IC50 is 21.2 nM. Besides, the “detection of metabolite” value in [4] was “not detectable”. In data set [8], the “M1 formation in CYP450 enzyme incubations” value is “could not be detected in all CYP450 enzymes incubations”. For the same molecule, in [9], the “neuroprotective activity in cell cultures” value was “showed neuroprotective activity in cell cultures”.

As to `COc1cc(O)cc2oc(=O)c(N3CCNCC3)c(C)c12` [M2], the “detection of metabolite” value in data set [4] was “not detectable”.
